Assay [1] concerns the target cdk4/D (Homo sapiens, UniProt P11802). Description: Cyclin-Dependent Kinase 4 (cdk4) Assay. The assay is classed as biochemical. Particulars: read-out: cdk4/D IC50.
Assay [2] addresses Cdk5/p25 (Homo sapiens, UniProt Q00535). Kind of assay: Cyclin-Dependent Kinase 5 High Throughput Screening (cdk5-HTS) Assay. The assay is classed as biochemical. The note with it: high throughput screen. In short, it runs like this: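 Cdk5/p25 (1.0 μg/mL) phosphorylates GST-RbCOOH (20 μg/mL) in 50 mM Tris pH 7.4 with 10 mM MgCl2 and 20 μM ATP spiked with [γ33P]ATP, 30 min at room temperature. After EDTA stop, substrate captured on glutathione-coated plates; 33P incorporation counted by scintillation; IC50 determined.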

For assay [3], the target named is cdk2/cyclinE (Homo sapiens, UniProt P24941). Description: Cyclin-Dependent Kinase Assay cdk2/cyclinE. The note with it: cdk2/E IC50.
Experimental: (§1) Cyclin-Dependent Kinase Assays (cdk2/cyclinE, cdk2/cyclinA, cdc2/cyclinB)
(§2) All components except the ATP were added to the wells, and the plate was placed on a plate mixer for 2 minutes. The reaction was begun by addition of [^32P]ATP, and the plate was incubated at 25° C. for 15 minutes. The reaction was terminated by addition of 0.1 mL of 20% TCA. The plate was kept at 4° C. for at least 1 hour to allow the substrate to precipitate. The wells were then washed five times with 0.2 mL of 10% TCA and ^32p incorporation determined with a beta plate counter (Wallac Inc., Gaithersburg, Md.).
Assay [4] addresses cdk2/cyclinA (Homo sapiens, UniProt P24941). Description: Cyclin-Dependent Kinase Assay cdk2/cyclinA. The note with it: cdk2/A IC50.
Experimental: as §1, §2
In assay [5] the target is cdc2/cyclinB (Homo sapiens, UniProt P06493). Kind of assay: Cyclin-Dependent Kinase Assay cdc2/cyclinB.
Chain of cdc2/cyclinB (P06493 whole entry): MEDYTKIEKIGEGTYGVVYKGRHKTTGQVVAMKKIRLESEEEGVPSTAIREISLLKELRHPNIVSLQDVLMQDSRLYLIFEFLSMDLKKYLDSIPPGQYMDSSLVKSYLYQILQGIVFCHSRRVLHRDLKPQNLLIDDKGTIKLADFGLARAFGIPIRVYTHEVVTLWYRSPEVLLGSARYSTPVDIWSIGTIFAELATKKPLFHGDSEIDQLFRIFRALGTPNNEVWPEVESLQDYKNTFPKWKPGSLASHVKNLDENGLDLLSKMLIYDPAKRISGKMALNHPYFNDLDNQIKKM
Chain of cdc2/cyclinB (P14635 whole entry, further chain): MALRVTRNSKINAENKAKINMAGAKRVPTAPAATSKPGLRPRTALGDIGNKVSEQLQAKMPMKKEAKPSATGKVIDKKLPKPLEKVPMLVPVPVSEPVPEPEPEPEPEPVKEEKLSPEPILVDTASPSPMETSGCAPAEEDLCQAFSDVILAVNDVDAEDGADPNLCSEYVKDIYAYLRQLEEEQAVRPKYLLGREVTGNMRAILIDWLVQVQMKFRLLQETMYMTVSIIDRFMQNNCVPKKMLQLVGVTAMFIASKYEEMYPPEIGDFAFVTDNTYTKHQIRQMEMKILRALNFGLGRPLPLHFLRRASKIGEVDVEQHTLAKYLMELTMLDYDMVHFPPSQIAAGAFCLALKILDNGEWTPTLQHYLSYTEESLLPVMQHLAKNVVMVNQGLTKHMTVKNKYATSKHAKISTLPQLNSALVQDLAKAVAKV

Chain of cdk4/D (P11802 whole entry): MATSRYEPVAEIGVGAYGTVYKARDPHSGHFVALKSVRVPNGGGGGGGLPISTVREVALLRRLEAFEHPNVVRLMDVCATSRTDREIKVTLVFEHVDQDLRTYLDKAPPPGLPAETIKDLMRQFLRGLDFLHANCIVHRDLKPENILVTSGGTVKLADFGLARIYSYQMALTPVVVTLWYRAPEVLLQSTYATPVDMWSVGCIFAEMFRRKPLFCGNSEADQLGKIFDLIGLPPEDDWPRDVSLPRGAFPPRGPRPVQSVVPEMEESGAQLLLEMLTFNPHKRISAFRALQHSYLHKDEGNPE
Chain of cdk4/D (P24385 whole entry, further chain): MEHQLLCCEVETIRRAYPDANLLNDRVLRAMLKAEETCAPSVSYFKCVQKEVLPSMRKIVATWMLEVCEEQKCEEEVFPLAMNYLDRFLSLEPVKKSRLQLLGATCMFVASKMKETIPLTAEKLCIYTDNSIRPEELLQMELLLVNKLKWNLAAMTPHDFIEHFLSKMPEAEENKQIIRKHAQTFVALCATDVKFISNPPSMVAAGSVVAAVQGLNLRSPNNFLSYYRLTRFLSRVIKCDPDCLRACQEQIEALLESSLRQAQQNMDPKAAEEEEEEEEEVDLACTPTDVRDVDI

On to `O=c1ccc2cnc(Nc3ccc4[nH]nnc4c3)nc2n1CC1CC1` [Example 564, 2-(1H-Benzotriazol-5-ylamino)-8-cyclopropylmethyl-8H-pyrido[2,3-d]pyrimidin-7-one], for which the IC50 was 505 nM in assay [1]; 52 nM in assay [2]; 50 nM in assay [3]; 117 nM in assay [4]; 94.5 nM in assay [5].
For `CC(C)(C)OC(=O)Nc1ccc(Nc2ncc3ccc(=O)n(CC4CC4)c3n2)cc1` [Example 565, [4-(8-Cyclopropylmethyl-7-oxo-7,8-dihydro-pyrido[2,3-d]pyrimidin-2-ylamino)-phenyl]-carbamic acid tert-butyl ester] the same measures were 385 nM, 290 nM, 193 nM, 510 nM and 365 nM.
For `O=c1ccc2cnc(Nc3ccc(O)cc3F)nc2n1CC1CC1` [Example 566, 8-Cyclopropylmethyl-2-(2-fluoro-4-hydroxy-phenylamino)-8H-pyrido[2,3-d]pyrimidin-7-one], the IC50 turned out to be 855 nM in assay [1]; 255 nM in assay [2]; 187 nM in assay [3]; 615 nM in assay [4]; 445 nM in assay [5].
For `O=c1ccc2cnc(Nc3ccc(O)c(Cl)c3)nc2n1CC1CC1` [Example 567, 2-(3-Chloro-4-hydroxy-phenylamino)-8-cyclopropylmethyl-8H-pyrido[2,3-d]pyrimidin-7-one] the same measures were 145 nM, 31.5 nM, 16.3 nM, 54.5 nM and 76 nM.
For the compound `O=c1ccc2cnc(Nc3cc(Cl)c(O)c(Cl)c3)nc2n1CC1CC1` [Example 568, 8-Cyclopropylmethyl-2-(3,5-dichloro-4-hydroxy-phenylamino)-8H-pyrido[2,3-d]pyrimidin-7-one], the IC50 was determined as 920 nM in assay [1]; 102 nM in assay [2]; 43 nM in assay [3]; 102 nM in assay [4]; 101 nM in assay [5].
Regarding `COc1cc(Nc2ncc3ccc(=O)n(CC4CC4)c3n2)cc(OC)c1OC` [Example 569, 8-Cyclopropylmethyl-2-(3,4,5-trimethoxy-phenylamino)-8H-pyrido[2,3-d]pyrimidin-7-one], the IC50 in assay [1] was found to be 3500 nM; in assay [2] it was 310 nM; in assay [3] it was 260 nM; in assay [4], 1600 nM; in assay [5] it was 560 nM.
For `O=c1ccc2cnc(Nc3ccc(F)c(C(F)(F)F)c3)nc2n1CC1CC1` [Example 570, 8-Cyclopropylmethyl-2-(4-fluoro-3-trifluoromethyl-phenylamino)-8H-pyrido[2,3-d]pyrimidin-7-one] the same measures were 680 nM, 50 nM, 63 nM, 430 nM and 170 nM.
For `NS(=O)(=O)c1ccc(Nc2ncc3ccc(=O)n(CC4CC4)c3n2)cc1` [Example 571, 4-(8-Cyclopropylmethyl-7-oxo-7,8-dihydro-pyrido[2,3-d]pyrimidin-2-ylamino)-benzenesulfonamide] the same measures were 65 nM, 8.8 nM, 5.1 nM, 15 nM and 29 nM.
On to `O=c1ccc2cnc(Nc3cc([N+](=O)[O-])ccc3F)nc2n1CC1CC1` [Example 572, 8-Cyclopropylmethyl-2-(2-fluoro-5-nitro-phenylamino)-8H-pyrido[2,3-d]pyrimidin-7-one], for which the IC50 in assay [1] was found to be 120 nM; in assay [2], 190 nM; in assay [3], 84 nM; in assay [4], 530 nM; in assay [5], 430 nM.
The like results for `CC(=O)Nc1cc(Nc2ncc3ccc(=O)n(CC4CC4)c3n2)ccc1C#N` [Example 574, N-[2-Cyano-5-(8-cyclopropylmethyl-7-oxo-7,8-dihydro-pyrido[2,3-d]pyrimidin-2-ylamino)-phenyl]-acetamide] were, in that order, 80 nM, 140 nM, 270 nM, 520 nM and 290 nM.
For `O=c1ccc2cnc(Nc3cc(F)cc(F)c3)nc2n1CC1CC1` [Example 575, 8-Cyclopropylmethyl-2-(3,5-difluoro-phenylamino)-8H-pyrido[2,3-d]pyrimidin-7-one] the same measures were 540 nM, 230 nM, 280 nM, 330 nM and 330 nM.
As for `O=c1ccc2cnc(Nc3ccc(F)c([N+](=O)[O-])c3)nc2n1CC1CC1` [Example 576, 8-Cyclopropylmethyl-2-(4-fluoro-3-nitro-phenylamino)-8H-pyrido[2,3-d]pyrimidin-7-one], the IC50 is 420 nM in assay [1]; 410 nM in assay [2]; 460 nM in assay [3]; 490 nM in assay [4]; 650 nM in assay [5].
On to `O=c1[nH]c2ccc(Nc3ncc4ccc(=O)n(CC5CC5)c4n3)cc2[nH]1` [Example 577, 8-Cyclopropylmethyl-2-(2-oxo-2,3-dihydro-1H-benzimidazol-5-ylamino)-8H-pyrido[2,3-d]pyrimidin-7-one], for which the IC50 was 230 nM in assay [1]; 92 nM in assay [2]; 110 nM in assay [3]; 120 nM in assay [4]; 120 nM in assay [5].
For the compound `O=c1ccc2cnc(Nc3cccc(O)c3)nc2n1CC1CC1` [Example 578, 8-Cyclopropylmethyl-2-(3-hydroxy-phenylamino)-8H-pyrido[2,3-d]pyrimidin-7-one], the IC50 stood at 140 nM in assay [1]; 110 nM in assay [2]; 170 nM in assay [3]; 190 nM in assay [4]; 310 nM in assay [5].
Turning to `CC1Nc2ccc(Nc3ncc4ccc(=O)n(CC5CC5)c4n3)cc2C1C` (stereo not shown) [Example 580, 8-Cyclopropylmethyl-2-(2,3-dimethyl-2,3-dihydro-1H-indol-5ylamino)-8H-pyrido[2,3-d]pyrimidin-7-one], the IC50 in assay [1] came to 550 nM; in assay [2], 130 nM; in assay [3], 130 nM; in assay [4], 270 nM; in assay [5] it was 79 nM.
As to `O=c1ccc2cnc(Nc3ccc4[nH]c5ccccc5c4c3)nc2n1CC1CC1` [Example 582, 2-(9H-Carbazol-3-ylamino)-8-cyclopropylmethyl-8H-pyrido[2,3-d]pyrimidin-7-one], the IC50 in assay [1] came to 660 nM; in assay [2] it was 190 nM; in assay [3], 250 nM; in assay [4], 440 nM; in assay [5], 280 nM.
The like results for `O=C1CSc2ccc(Nc3ncc4ccc(=O)n(CC5CC5)c4n3)cc2N1` [Example 584, 8-Cyclopropylmethyl-2-(3-oxo-3,4-dihydro-2H-1,4-benzothiazin-6-ylamino)-8H-pyrido[2,3-d]pyrimidin-7-one] were, in that order, 98 nM, 39 nM, 100 nM, 140 nM and 170 nM.
For `CC(=O)Nc1cc(Nc2ncc3ccc(=O)n(CC4CC4)c3n2)ccc1C` [Example 585] the same measures were 210 nM, 450 nM, 320 nM, 180 nM and 340 nM.
For `Cc1cc(Nc2ncc3ccc(=O)n(CC4CC4)c3n2)cc(C)c1O` [Example 586, 8-Cyclopropylmethyl-2-(4-hydroxy-3,5-dimethyl-phenylamino)-8H-pyrido[2,3-d]pyrimidin-7-one] the same measures were 490 nM, 170 nM, 200 nM, 170 nM and 120 nM.
Regarding `O=c1ccc2cnc(Nc3ccc4c(c3)CCC4)nc2n1CC1CC1` [Example 587, 8-Cyclopropylmethyl-2-(indan-5-ylamino)-8H-pyrido[2,3-d]pyrimidin-7-one], the IC50 in assay [1] came to 200 nM; in assay [2], 160 nM; in assay [3], 81 nM; in assay [4] it was 440 nM; in assay [5], 360 nM.
The like results for `O=c1ccc2cnc(Nc3cc(F)c(F)c(F)c3)nc2n1CC1CC1` [Example 588, 8-Cyclopropylmethyl-2-(3,4,5-trifluoro-phenylamino)-8H-pyrido[2,3-d]pyrimidin-7-one] were, in that order, 2600 nM, 260 nM, 100 nM, 670 nM and 710 nM.
The like results for `Cc1ccc(Nc2ncc3ccc(=O)n(CC4CC4)c3n2)cc1NS(C)(=O)=O` [Example 592, N-[5-(8-Cyclopropylmethyl-7-oxo-7,8-dihydro-pyrido[2,3-d]pyrimidin-2-ylamino)-2-methyl-phenyl]-methanesulfonamide] were, in that order, 200 nM, 230 nM, 71 nM, 310 nM and 430 nM.
For `O=c1ccc2cnc(Nc3ccc4[nH]ccc4c3)nc2n1CC(F)(F)F` [Example 593, 2-(1H-Indol-5-ylamino)-8-(2,2,2-trifluoro-ethyl)-8H-pyrido[2,3-d]pyrimidin-7-one] the same measures were 905 nM, 695 nM, 1370 nM, 2700 nM and 960 nM.

Values taken from patent publication US20040224958A1, “Pyridopyrimidinone derivatives for treatment of neurodegenerative disease” (priority 2000, published 2004).
